In the supplement of paper PMC10307832:

How the values were obtained:
[1] = compound: C[C@]1(c2nc3c(C(N)=O)cccc3[nH]2)CCCN1 [Veliparib]; experiment: relative viability (nuclei count vs DMSO), 5 days (fraction); higher = more cells survive
Procedure, shortened: (§1)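 Hoechst staining, done together with fixation and permeabilisation, marked nuclei for 4× imaging and MetaXpress counting. This followed 5 days without medium change after lung cancer cell lines, kept overnight at 37 °C in 1536-well plates, were pinned with five library-drug doses (not always all listed) spaced by √10 on vehicle-anchored plates. Viability is the ratio of treated-well to vehicle-well nuclei, expressed as a median across plates. Plates passed only at control CV below 25% with at least one doubling.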

[2] = compound: COC1=CC=C(C=C1)CN2C=CC3=C2C=C(C=C3)C(=O)NO; experiment: as above
Procedure, shortened: as §1

Row | Cell Line | relative viability ([1]; 0.02 µM) | relative viability ([1]; 0.06325 µM) | relative viability ([1]; 0.2 µM) | relative viability ([1]; 0.6325 µM) | relative viability ([1]; 2 µM) | relative viability ([2]; 0.08 µM) | relative viability ([2]; 0.253 µM) | relative viability ([2]; 0.8 µM) | relative viability ([2]; 2.53 µM) | relative viability ([2]; 8 µM)
1 | NCI-H1703 | 0.816 | 0.839 | 0.852 | 0.878 | 1.11 | 0.699 | 1.07 | 0.959 | 0.956 | 0.904
2 | NCI-H1734 | 0.82 | 0.857 | 0.957 | 0.858 | 0.997 |  | 0.957 | 1.16 | 1.02 | 0.73
3 | NCI-H1755 | 1.02 | 0.957 | 1.02 | 0.913 | 0.963 | 0.869 | 1.03 | 0.965 | 0.993 | 0.973
4 | NCI-H1792 | 0.825 | 0.694 | 0.943 | 0.966 | 0.718 | 0.952 | 0.883 | 0.99 | 0.766 | 0.795
5 | NCI-H1793 | 0.881 | 0.923 | 0.904 | 0.865 | 0.932 |  | 1 | 1.02 | 1.03 | 1.01
6 | NCI-H1915 | 0.949 | 0.881 | 0.786 | 0.9 | 0.928 | 0.888 | 0.992 | 1.02 | 0.982 | 0.881
7 | NCI-H1944 | 0.878 | 0.961 | 0.765 | 0.789 | 0.894 |  | 0.986 | 0.987 | 0.947 | 0.955
8 | NCI-H1975 | 1.03 | 0.876 | 0.903 | 0.884 | 0.861 | 0.862 | 0.976 | 0.923 | 0.979 | 0.872
9 | NCI-H1993 | 0.693 | 0.883 | 0.87 | 1.05 | 0.929 | 0.932 | 0.9 | 1.06 | 0.969 | 0.888
10 | NCI-H2009 | 0.918 | 0.922 | 0.972 | 0.931 | 1.1 | 0.926 | 0.978 | 1.01 | 0.993 | 0.913
11 | NCI-H2023 | 0.853 | 0.939 | 0.919 | 0.85 | 0.928 | 0.908 | 1.02 | 1.02 | 0.949 | 0.87
12 | NCI-H2085 | 0.851 | 0.999 | 0.983 | 0.922 | 1.01 | 1.01 | 0.991 | 1.04 | 0.996 | 0.968
13 | NCI-H2087 | 0.854 | 0.97 | 0.936 | 0.955 | 1.05 | 0.913 | 1 | 1.19 | 0.935 | 0.85
14 | NCI-H2126 | 0.986 | 0.926 | 0.984 | 0.985 | 0.999 | 0.99 | 1.03 | 1.03 | 1.02 | 0.942
15 | NCI-H2170 | 0.989 | 0.954 | 0.967 | 0.96 | 0.991 | 0.973 | 0.994 | 0.977 | 0.98 | 0.906
16 | NCI-H2228 | 0.909 | 1.08 | 1.15 | 0.954 | 0.932 | 1.06 | 1.05 | 0.996 | 1.07 | 0.851
17 | NCI-H2342 | 0.966 | 0.968 | 0.94 | 0.873 | 0.979 | 0.946 | 0.973 | 0.992 | 0.997 | 0.827
18 | NCI-H2347 | 1.08 | 0.936 | 0.94 | 0.971 | 0.898 | 0.911 | 1.06 | 1.1 | 1.17 | 0.974
19 | NCI-H2405 | 0.973 | 0.89 | 1.01 | 1 | 0.691 | 0.908 | 0.934 | 1 | 1.06 | 0.913
20 | NCI-H3122 | 1 | 1.01 | 0.974 | 0.957 | 1 | 0.971 | 0.984 | 0.954 | 0.989 | 0.955
21 | PC-3 [JPC-3] | 1 | 0.968 | 1.05 | 1.04 | 1.06 | 1 | 1.03 | 1.11 | 1.08 | 0.968
22 | PC-14 | 0.805 | 0.936 | 0.974 | 0.955 | 0.993 | 0.84 | 0.939 | 0.998 | 1.01 | 0.904
23 | RERF-LC-KJ | 0.964 | 0.939 | 1.01 | 0.938 | 1.01 | 0.956 | 1.03 | 0.984 | 1.03 | 0.969
24 | SK-LU-1 | 1.04 | 1.06 | 1.06 | 0.98 | 1.01 | 0.974 | 0.997 | 1.02 | 1.04 | 0.966
25 | SK-MES-1 | 1.03 | 0.939 | 0.977 | 0.961 | 1.03 | 1.07 | 1.02 | 0.988 | 1.03 | 0.997
26 | SW 900 |  | 0.645 | 0.909 | 0.807 | 0.777 | 0.862 | 0.802 | 0.934 | 0.941 | 0.732
27 | UMC-11 | 1.09 | 0.997 | 0.964 | 0.926 | 0.983 | 0.711 | 0.965 | 1.02 | 0.907 | 0.964
